The experiment relates to BDF1 mice, B16 melanoma ip, median survival T/C. As to the kind of experiment: NCI In Vivo Anticancer Drug Screen. Data for tumor model B16 Melanoma (intraperitoneal) in B6D2F1 (BDF1) mice. Conditions: endpoint: median survival time, higher = longer survival. A digest of the protocol:
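The ratio T/C compares compound-treated mice with vehicle-treated controls, using survival or tumor size as the endpoint in a transplantable tumor model.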

Where [1] appears, read: dose: 3.12 mg/kg/injection, schedule: Q01DX009 (ip), vehicle: saline.
Setting [2] is: dose: 6.25 mg/kg/injection, schedule: Q01DX009 (ip), vehicle: saline.
[3] abbreviates: dose: 12.5 mg/kg/injection, schedule: Q01DX009 (ip), vehicle: saline.
Where [4] appears, read: dose: 25.0 mg/kg/injection, schedule: Q01DX009 (ip), vehicle: saline.
Setting [5] is: dose: 50.0 mg/kg/injection, schedule: Q01DX009 (ip), vehicle: saline.
The mark [6] stands for this setting: dose: 12.5 mg/kg/injection, schedule: Q01DX009 (ip), vehicle: saline with Tween-80.
Where [7] appears, read: dose: 25.0 mg/kg/injection, schedule: Q01DX009 (ip), vehicle: saline with Tween-80.
Setting [8] is: dose: 50.0 mg/kg/injection, schedule: Q01DX009 (ip), vehicle: saline with Tween-80.
[9] abbreviates: dose: 12.5 mg/kg/injection, schedule: Q01DX009 (ip), vehicle: Klucel (hydroxypropylcellulose) (HPC).
[10] abbreviates: dose: 25.0 mg/kg/injection, schedule: Q01DX009 (ip), vehicle: Klucel (hydroxypropylcellulose) (HPC).
Where [11] appears, read: dose: 50.0 mg/kg/injection, schedule: Q01DX009 (ip), vehicle: Klucel (hydroxypropylcellulose) (HPC).
Where [12] appears, read: dose: 100.0 mg/kg/injection, schedule: Q01DX009 (ip), vehicle: Klucel (hydroxypropylcellulose) (HPC).
[13] abbreviates: dose: 200.0 mg/kg/injection, schedule: Q01DX009 (ip), vehicle: Klucel (hydroxypropylcellulose) (HPC).
The mark [14] stands for this setting: dose: 50.0 mg/kg/injection, schedule: Q04DX003 (ip), vehicle: Klucel (hydroxypropylcellulose) (HPC).
Setting [15] is: dose: 100.0 mg/kg/injection, schedule: Q04DX003 (ip), vehicle: Klucel (hydroxypropylcellulose) (HPC).

SMILES strings stand for the structures. Where “and” joins values, the source holds several entries; their conditions need not be identical. Equal entries are not always repeated. Inconclusive results and toxic doses are left out.

Consider `C=CCC(N)Cc1ccccc1` (stereo unspecified), for which the T/C was 105 % of control under setting [1]; 112 % of control (dose: 3.12 mg/kg/injection, schedule: Q04DX003 (ip), vehicle: saline); 105 % of control under setting [2]; 105 % of control (dose: 6.25 mg/kg/injection, schedule: Q04DX003 (ip), vehicle: saline); 111 % of control under setting [3]; 97 % of control (dose: 12.5 mg/kg/injection, schedule: Q04DX003 (ip), vehicle: saline). The T/C by setting is: under setting [4], 100 % of control; (dose: 25.0 mg/kg/injection, schedule: Q04DX003 (ip), vehicle: saline) 100 % of control; under setting [5], 110 % of control; (dose: 50.0 mg/kg/injection, schedule: Q04DX003 (ip), vehicle: saline) 100 % of control.
For `N=C(N)c1ccc(N=NNc2ccc(C(=N)N)cc2)cc1`, the T/C reads like this: under setting [6], 101 % of control; under setting [7], 112 % of control; under setting [8], 114 % of control.
Turning to `NC(N)=NCCc1ccccc1`, the T/C is 119 % of control (dose: 5.0 mg/kg/injection, schedule: Q01DX009 (ip), vehicle: saline); 111 % of control (dose: 10.0 mg/kg/injection, schedule: Q01DX009 (ip), vehicle: saline); 114 % of control (dose: 20.0 mg/kg/injection, schedule: Q01DX009 (ip), vehicle: saline).
Turning to `CC1CCC(=C(c2ccccc2)c2ccccc2)C(C)N1C` (stereo unspecified), the T/C runs as follows: (dose: 25.0 mg/kg/injection, schedule: Q04DX003 (ip), vehicle: saline with Tween-80) 105 % of control; (dose: 50.0 mg/kg/injection, schedule: Q04DX003 (ip), vehicle: saline with Tween-80) 93 % of control.
For the compound `COc1ccc2c(c1O)-c1cccc3c1[C@@H](C2)N(CCCl)CC3`, the T/C was 91 % of control and 116 % of control (dose: 4.0 mg/kg/injection, schedule: Q01DX009 (ip), vehicle: saline); 97 % of control and 120 % of control (dose: 8.0 mg/kg/injection, schedule: Q01DX009 (ip), vehicle: saline); 97 % of control and 111 % of control (dose: 16.0 mg/kg/injection, schedule: Q01DX009 (ip), vehicle: saline).
Turning to `Cc1ccccc1Oc1ccccc1N`, the T/C runs as follows: (dose: 50.0 mg/kg/injection, schedule: Q01DX009 (sc), vehicle: olive oil, sesame oil, peanut oil) 88 % of control; (dose: 100.0 mg/kg/injection, schedule: Q01DX009 (sc), vehicle: olive oil, sesame oil, peanut oil) 90 % of control; (dose: 200.0 mg/kg/injection, schedule: Q01DX009 (sc), vehicle: olive oil, sesame oil, peanut oil) 97 % of control; (dose: 400.0 mg/kg/injection, schedule: Q01DX009 (sc), vehicle: olive oil, sesame oil, peanut oil) 90 % of control.
Take `O=c1[nH]c(=O)n([C@H]2CCCO2)cc1F`: the T/C is 86 % of control under setting [1]; 98 % of control under setting [9]; 86 % of control under setting [3]; 94 % of control under setting [10]; 100 % of control under setting [4]; 97 % of control under setting [11]. Further, the T/C under setting [5] is 95 % of control; the T/C under setting [12] was 102 % of control; the T/C (dose: 100.0 mg/kg/injection, schedule: Q01DX009 (ip), vehicle: saline) is 102 % of control and 104 % of control.
As to `O=C(O)CCC(=O)O`, the T/C reads like this: (dose: 10.0 mg/kg/injection, schedule: Q01DX009 (ip), vehicle: water) 101 % of control [middle of 4 runs]; (dose: 20.0 mg/kg/injection, schedule: Q01DX009 (ip), vehicle: water) 102 % of control [middle of 4 runs]; (dose: 40.0 mg/kg/injection, schedule: Q01DX009 (ip), vehicle: water) 101 % of control and 119 % of control and 98 % of control; (dose: 80.0 mg/kg/injection, schedule: Q01DX009 (ip), vehicle: water) 93 % of control and 100 % of control and 104 % of control; (dose: 160.0 mg/kg/injection, schedule: Q01DX009 (ip), vehicle: water) 88 % of control and 94 % of control and 114 % of control; (dose: 320.0 mg/kg/injection, schedule: Q01DX009 (ip), vehicle: water) 106 % of control.
Take `CN(C)CC/C=C1\c2ccccc2CN(C)c2ccccc21`: the T/C is 102 % of control under setting [2], 107 % of control under setting [3], 94 % of control under setting [4] and 99 % of control under setting [5].
Turning to `O=[N+]([O-])c1ccc(OCc2ccc(S(=O)(=O)F)c(Cl)c2)c(Cl)c1`, the T/C runs as follows: under setting [12], 102 % of control; under setting [13], 100 % of control; (dose: 400.0 mg/kg/injection, schedule: Q01DX009 (ip), vehicle: Klucel (hydroxypropylcellulose) (HPC)) 97 % of control.
Regarding `CCCCc1ccc(-n2c(C)c(COC(=O)NC)c(COC(=O)NC)c2C)cc1`, under setting [10], the T/C is 159 % of control.
On to `COC(=O)C(CSCc1ccccc1)NC(=O)CCNC(=O)OCc1ccccc1` (stereo unspecified), for which the T/C runs as follows: (dose: 25.0 mg/kg/injection, schedule: Q01DX009 (ip), vehicle: other) 107 % of control; (dose: 50.0 mg/kg/injection, schedule: Q01DX009 (ip), vehicle: other) 92 % of control; (dose: 100.0 mg/kg/injection, schedule: Q01DX009 (ip), vehicle: other) 97 % of control; (dose: 200.0 mg/kg/injection, schedule: Q01DX009 (ip), vehicle: other) 93 % of control.
`Cc1cc(C)c(-c2cc(O)c(C)cc2O)c(C)c1`: the T/C is 95 % of control under setting [9]; 97 % of control under setting [10]; 97 % of control under setting [11]; 93 % of control under setting [12]; 90 % of control under setting [13].
As for `CC(=O)Nc1ccc(OC(=O)Nc2cccc3ccccc23)cc1`, the T/C is, setting by setting: under setting [14], 96 % of control; under setting [15], 106 % of control; (dose: 200.0 mg/kg/injection, schedule: Q04DX003 (ip), vehicle: Klucel (hydroxypropylcellulose) (HPC)) 93 % of control.
As for `c1ccc(C(C2=NCCN2)c2ccccc2)cc1`, the T/C runs as follows: (dose: 25.0 mg/kg/injection, schedule: Q04DX003 (ip), vehicle: Klucel (hydroxypropylcellulose) (HPC)) 105 % of control; under setting [14], 91 % of control; under setting [15], 95 % of control.
Consider `COc1cc(/C=N/NC(=O)N/N=C/c2cc(OC)c(OC)c(OC)c2)cc(OC)c1OC`, for which the T/C is 93 % of control under setting [12] and 90 % of control under setting [13].
Regarding `O=C1NC(=O)/C(=C/C=C/c2ccccc2)S1`, the T/C is, setting by setting: under setting [6], 99 % of control and 114 % of control; under setting [7], 97 % of control and 115 % of control; under setting [8], 99 % of control and 103 % of control; (dose: 100.0 mg/kg/injection, schedule: Q01DX009 (ip), vehicle: saline with Tween-80) 99 % of control and 108 % of control; (dose: 200.0 mg/kg/injection, schedule: Q01DX009 (ip), vehicle: saline with Tween-80) 114 % of control; (dose: 400.0 mg/kg/injection, schedule: Q01DX009 (ip), vehicle: saline with Tween-80) 98 % of control.

These data come from PubChem BioAssay AID192 (DTP/NCI, 2004).
